A word on the IC50: it is the concentration at which inhibition is half-maximal.

The target in this assay is [35S]-TBPS binding, rat brain cortical membranes. Description: Steroid inhibition of [35S]-TBPS binding. The settings on record: 3 nM [35S]-TBPS, in the presence of 5 mM GABA. In a few lines:
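Rat cortical P2 membranes incubated 90 min at room temperature with 3 nM [35S]-TBPS, […] and test compound (0.5% DMSO final) in NaCl/Na–K phosphate pH 7.4; nonspecific binding with […]. Filter-bound radioactivity counted; IC50 and Imax from nonlinear fits, mean ± SEM.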

As to `C[C@H](NC(=O)c1cccc(C#N)c1)[C@H]1CC[C@H]2[C@@H]3CC[C@@H]4C[C@](C)(O)CC[C@@H]4[C@H]3CC[C@]12C` [Example 110], the IC50 lay within 1000 to 10000 nM. For `C[C@@H](Nc1cccnc1)[C@H]1CC[C@H]2[C@@H]3CC[C@@H]4C[C@](C)(O)CC[C@@H]4[C@H]3CC[C@]12C` [Example 203], the IC50 is less than 100 nM.

On to `CC[C@@]1(O)CC[C@H]2[C@H](CC[C@@H]3[C@@H]2CC[C@]2(C)[C@@H]([C@H](C)Cn4ccc(C#N)n4)CC[C@@H]32)C1` [Example 271, 1-((S)-2-((3R,5R,8R,9R,10S,13S,14S,17R)-3-ethyl-3-hydroxy-13-methylhexadecahydro-1H-cyclopenta[a]phenanthren-17-yl)propyl)-1H-pyrazole-3-carbonitrile], for which the IC50 is less than 100 nM. For `CCC[C@@]1(O)CC[C@@]2(C)[C@H](CC[C@@H]3[C@@H]2[C@H](O)C[C@]2(C)[C@@H]([C@H](C)Cn4cc(C#N)cn4)CC[C@@H]32)C1` [Example 338, 1-((S)-2-((3R,5R,8S,9S,10S,11R,13S,14S,17R)-3,11-dihydroxy-10,13-dimethyl-3-propylhexadecahydro-1H-cyclopenta[a]phenanthren-17-yl)propyl)-1H-pyrazole-4-carbonitrile] the value was 100 to 1000 nM. For `C[C@H](Cn1cc(C#N)cn1)[C@H]1CC[C@H]2[C@@H]3CC[C@@H]4C[C@](C)(O)CC[C@@H]4[C@H]3CC[C@]12C` [Example 52, 1-((S)-2-((3R,5R,8R,9R,10S,13S,14S,17R)-3-hydroxy-3,13-dimethylhexadecahydro-1H-cyclopenta[a]phenanthren-17-yl)propyl)-1H-pyrazole-4-carbonitrile] the value was less than 100 nM; for `COC[C@@]1(O)CC[C@H]2[C@H](CC[C@@H]3[C@@H]2CC[C@]2(C)[C@@H]([C@@H](C)Nc4ccc(C#N)nc4)CC[C@@H]32)C1` [Example 258], 100 to 1000 nM. For `CCOC[C@@]1(O)CC[C@@]2(C)[C@H](CC[C@@H]3[C@@H]2CC[C@]2(C)[C@@H]([C@@H](C)N[C@H](C)c4ccccc4)CC[C@@H]32)C1` [Example 207] the value was 1000 to 10000 nM.

With `CCOC[C@@]1(O)CC[C@H]2[C@H](CC[C@@H]3[C@@H]2CC[C@]2(C)[C@@H]([C@@H](C)N4Cc5cc(C#N)ccc5C4=O)CC[C@@H]32)C1` [Example 43, 2-((R)-1-((3R,5R,8R,9R,10S,13S,14S,17S)-3-(ethoxymethyl)-3-hydroxy-13-methylhexadecahydro-1H-cyclopenta[a]phenanthren-17-yl)ethyl)-1-oxoisoindoline-5-carbonitrile], the IC50 fell in the range of 100 to 1000 nM.

In the case of `Cc1cnc(C[C@H](C)[C@H]2CC[C@H]3[C@@H]4CC[C@@H]5C[C@](C)(O)CC[C@@H]5[C@H]4CC[C@]23C)nc1` [Example 437], the concentration for half-maximal inhibition (IC50) was less than 100 nM. For `CCOC[C@@]1(O)CC[C@@]2(C)[C@H](CC[C@@H]3[C@@H]2CC[C@]2(C)[C@@H]([C@@H](CC)Nc4ccc(C#N)nc4)CC[C@@H]32)C1` [Example 495, 5-(((R)-1-((3R,5R,8R,9S,10S,13S,14S,17S)-3-(ethoxymethyl)-3-hydroxy-10,13-dimethylhexadecahydro-1H-cyclopenta[a]phenanthren-17-yl)propyl)amino)picolinonitrile], the IC50 fell in the range of 100 to 1000 nM. `COC[C@@]1(O)CC[C@H]2[C@H](CC[C@@H]3[C@@H]2CC[C@]2(C)[C@@H]([C@H](C)n4cc(C#N)cn4)CC[C@@H]32)C1` [Example 151, 1-((S)-1-((3R,5R,8R,9R,10S,13S,14S,17S)-3-hydroxy-3-(methoxymethyl)-13-methylhexadecahydro-1H-cyclopenta[a]phenanthren-17-yl)ethyl)-1H-pyrazole-4-carbonitrile]: the IC50 lay in the range of 1000 to 10000 nM. For the molecule `CCOC[C@@]1(O)CC[C@@]2(C)[C@H](CC[C@H]3C4CC[C@H]([C@@H](C)Nc5ccc(-n6cc(C#N)cn6)cn5)[C@@]4(C)CC[C@@H]32)C1` (stereo partly drawn) [Example 504], the IC50 lay in the range of 100 to 1000 nM.

Turning to `C[C@@H](NC(=O)c1ccc(F)cn1)[C@H]1CC[C@H]2[C@@H]3CC[C@@H]4C[C@](C)(O)CC[C@@H]4[C@H]3CC[C@]12C` [Example 127], the IC50 lay within 100 to 1000 nM. With `C[C@@H](N[C@H](C)[C@H]1CC[C@H]2[C@@H]3CC[C@@H]4C[C@](C)(O)CC[C@@H]4[C@H]3CC[C@]12C)c1ccccc1` [Example 208], the IC50 lay within 100 to 1000 nM.

As for `CCCC[C@@]1(O)CC[C@H]2[C@H](CC[C@@H]3[C@@H]2CC[C@]2(C)[C@@H]([C@H](C)Cn4cc(C#N)cn4)CC[C@@H]32)C1` [Example 312], the IC50 is less than 100 nM.

For the molecule `COC[C@@]1(O)CC[C@H]2[C@H](CC[C@@H]3[C@@H]2CC[C@]2(C)[C@@H]([C@@H](C)Nc4ccc(C#N)cc4)CC[C@@H]32)C1` [Example 256], the IC50 is less than 100 nM. With `CCOC[C@@]1(O)CC[C@H]2[C@H](CC[C@@H]3[C@@H]2CC[C@]2(C)[C@@H]([C@H](C)Cc4ccc(C)nc4C#N)CC[C@@H]32)C1` [Example 415], the IC50 was less than 100 nM. Regarding `C[C@H](Cc1nc(C(F)(F)F)cs1)[C@H]1CC[C@H]2[C@@H]3CC[C@@H]4C[C@](C)(O)CC[C@@H]4[C@H]3CC[C@]12C` [Example 450], the IC50 fell in the range of 100 to 1000 nM. `CC(C)[C@@]1(O)CC[C@H]2[C@H](CC[C@@H]3[C@@H]2CC[C@]2(C)[C@@H]([C@H](C)Cn4cc(C#N)cn4)CC[C@@H]32)C1` [Example 344, 1-((S)-2-((3R,5R,8R,9R,10S,13S,14S,17R)-3-hydroxy-3-isopropyl-13-methylhexadecahydro-1H-cyclopenta[a]phenanthren-17-yl)propyl)-1H-pyrazole-4-carbonitrile]: the IC50 was not below 10000 nM. Turning to `CCC[C@@]1(O)CC[C@H]2[C@H](CC[C@@H]3[C@@H]2CC[C@]2(C)[C@@H]([C@H](C)Cc4ccc(C(F)(F)F)nc4)CC[C@@H]32)C1` [Example 411], the IC50 was less than 100 nM. As for `CCOC[C@@]1(O)CC[C@H]2[C@H](CC[C@@H]3[C@@H]2CC[C@]2(C)[C@@H]([C@@H](C)n4ncc(C#N)c4N)CC[C@@H]32)C1` [Example 160, 5-amino-1-((R)-1-((3R,5R,8R,9R,10S,13S,14S,17S)-3-(ethoxymethyl)-3-hydroxy-13-methylhexadecahydro-1H-cyclopenta[a]phenanthren-17-yl)ethyl)-1H-pyrazole-4-carbonitrile], the figure is 1000 to 10000 nM; as for `C[C@@]1(O)CC[C@H]2[C@H](CC[C@@H]3[C@@H]2CC[C@]2(C)[C@@H](CN4CC[C@@H](c5ccccc5)C4=O)CC[C@@H]32)C1` [Example 11, (S)-1-(((3R,5R,8R,9R,10S,13S,14S,17S)-3-hydroxy-3,13-dimethylhexadecahydro-1H-cyclopenta[a]phenanthren-17-yl)methyl)-3-phenylpyrrolidin-2-one], 100 to 1000 nM. As for `C[C@H](NC(=O)c1ccccc1F)[C@H]1CC[C@H]2[C@@H]3CC[C@@H]4C[C@](C)(O)CC[C@@H]4[C@H]3CC[C@]12C` [Example 102], the figure is 1000 to 10000 nM. With `CCOC[C@@]1(O)CC[C@H]2[C@H](CC[C@@H]3[C@@H]2CC[C@]2(C)[C@@H]([C@@H](C)Nc4ccc(C#N)cc4C)CC[C@@H]32)C1` [Example 260], the IC50 was less than 100 nM. Consider `CCOC[C@@]1(O)CC[C@H]2[C@H](CC[C@@H]3[C@@H]2CC[C@]2(C)[C@@H]([C@@H](C)Cc4ccc(C)nc4C#N)CC[C@@H]32)C1` [Example 414], for which the IC50 is less than 100 nM. Regarding `CC[C@@]1(O)CC[C@@]2(C)[C@H](CC[C@@H]3[C@@H]2CC[C@]2(C)[C@@H]([C@@H](C)Cn4nccc4C#N)CC[C@@H]32)C1` [Example 63, 1-((R)-2-((3R,5R,8R,9S,10S,13S,14S,17R)-3-ethyl-3-hydroxy-10,13-dimethylhexadecahydro-1H-cyclopenta[a]phenanthren-17-yl)propyl)-1H-pyrazole-5-carbonitrile], the half-maximal inhibitory concentration (IC50) was less than 100 nM. With `COC[C@@]1(O)CC[C@H]2[C@H](CC[C@@H]3[C@@H]2CC[C@]2(C)[C@@H]([C@H](C)NC(=O)c4ccc(C#N)cn4)CC[C@@H]32)C1` [Example 32, 5-cyano-N—((S)-1-((3R,5R,8R,9R,10S,13S,14S,17S)-3-hydroxy-3-(methoxymethyl)-13-methylhexadecahydro-1H-cyclopenta[a]phenanthren-17-yl)ethyl)picolinamide], the IC50 was in the range of 1000 to 10000 nM. `CC[C@@]1(O)CC[C@H]2[C@@H](CC[C@@H]3[C@@H]2CC[C@]2(C)[C@@H]([C@H](C)Cn4nnnc4C)CC[C@@H]32)C1` [Example 336, (3R,5S,8R,9R,10S,13S,14S,17R)-3-ethyl-13-methyl-17-((S)-1-(5-methyl-1H-tetrazol-1-yl)propan-2-yl)hexadecahydro-1H-cyclopenta[a]phenanthren-3-ol]: the IC50 is not below 10000 nM. For `C[C@@H](NC(=O)c1ccc(F)cc1)[C@H]1CC[C@H]2[C@@H]3CC[C@@H]4C[C@](C)(O)CC[C@@H]4[C@H]3CC[C@]12C` [Example 116] the value was less than 100 nM; for `CCC[C@@]1(O)CC[C@H]2[C@H](CC[C@@H]3[C@@H]2CC[C@]2(C)[C@@H]([C@H](C)Cc4ccc(C#N)nc4)CC[C@@H]32)C1` [Example 400, 5-((R)-2-((3R,5R,8R,9R,10S,13R,14S,17R)-3-hydroxy-13-methyl-3-propylhexadecahydro-1H-cyclopenta[a]phenanthren-17-yl)propyl)picolinonitrile], less than 100 nM.
